Assay: refractive index (Na D-line) (dimensionless); xn = mol fraction of the nth substance listed
Details: 101 kPa, Liquid, Standard Abbe refractometry

CCCCCCCC/C=C\CCCCCCCC(=O)OCC [ethyl (Z)-9-octadeceneoate] + CCCO
refractive index
Details | x2 = 0 | x2 = 0.1 | x2 = 0.2 | x2 = 0.3 | x2 = 0.4 | x2 = 0.5 | x2 = 0.6 | x2 = 0.7 | x2 = 0.8 | x2 = 0.9
293.15 K | 1.4494 | 1.4484 | 1.4468 | 1.4448 | 1.4422 | 1.4388 | 1.4346 | 1.4287 | 1.4205 | 1.408
298.15 K | 1.4474 | 1.4464 | 1.4448 | 1.4427 | 1.4401 | 1.4367 | 1.4325 | 1.4267 | 1.4184 | 1.4058
303.15 K | 1.4454 | 1.4444 | 1.4427 | 1.4406 | 1.4381 | 1.4347 | 1.4305 | 1.4246 | 1.4163 | 1.4037
308.15 K | 1.4433 | 1.4423 | 1.4407 | 1.4386 | 1.436 | 1.4326 | 1.4284 | 1.4225 | 1.4142 | 1.4016
313.15 K | 1.4414 | 1.4403 | 1.4386 | 1.4365 | 1.4339 | 1.4305 | 1.4262 | 1.4204 | 1.4121 | 1.3994
318.15 K | 1.4395 | 1.4382 | 1.4366 | 1.4344 | 1.4318 | 1.4284 | 1.4241 | 1.4183 | 1.4099 | 1.3973
323.15 K | 1.4375 | 1.4362 | 1.4345 | 1.4323 | 1.4297 | 1.4263 | 1.422 | 1.4161 | 1.4078 | 1.3952
328.15 K | 1.4355 | 1.4341 | 1.4325 | 1.4303 | 1.4276 | 1.4242 | 1.4199 | 1.4139 | 1.4057 | 1.393
333.15 K | 1.4335 | 1.4321 | 1.4304 | 1.4282 | 1.4255 | 1.422 | 1.4178 | 1.4118 | 1.4035 | 1.3907
338.15 K | 1.4315 | 1.4301 | 1.4284 | 1.4261 | 1.4234 | 1.4199 | 1.4156 | 1.4096 | 1.4013 | 1.3884
343.15 K | 1.4296 | 1.4281 | 1.4264 | 1.4241 | 1.4213 | 1.4178 | 1.4134 | 1.4074 | 1.3991 | 1.3861
